Molecules are shown by their SMILES.

The values that follow come from patent US11149031B2, “Substituted N-(3-fluoropropyl)-pyrrolidine compounds, processes for their preparation and therapeutic uses thereof” (SANOFI, priority 2016, dated 2021).

Assay [1] concerns MCF7 cells (breast tumor cells) WT. Kind of assay: Test B: cell proliferation/viability assay (CellTiter-Glo) on MCF7 WT. Format: cell-based. The conditions noted are these: Homo sapiens, MCF7, 168 h, 7 days of compound exposure. How it is done: (§1) Test B: Cell Proliferation/Viability Assay on MCF7 (Breast Tumor Cells) WT and Mutants Cell Lines
(§2) Test B involves measuring the in vitro proliferation activity of the compounds of the invention by analyzing the viability of the tumor cells.
The measurements of the viability were made using a breast cancer cell viability assay as described hereunder. […]
(§3) MCF7 cells (ATCC) or MCF7 cells expressing (and dependent) on mutants estrogen receptor Tyr 537 Ser or Asp 538 Gly were seeded in 384 wells microplate at concentration of >999 cells/30 μL per well in red phenol free MEM medium containing 5% charcoal dextran striped FBS. The following day, 9 points serial 1:5 dilution of each compound were added to the cells in 20 μL at final concentrations ranging from 3-0.000001 μM. After 7 days of compound exposure, 50 μL of CellTiter-Glo (promega) was added to the cells and relative luminescence arbitrary units (RLUs) were determined in luminescence plate reader (Envision device). CellTiter-Glo was added to 50 μL medium without cells to determine the background signal.
(§4) The percent of viability of each sample was determined as follows: (RLU sample−RLU background/RLU untreated−RLU background)*100=% viability.

Assay [2] relates to MCF7 cells expressing mutant estrogen receptor Tyr 537 Ser. Kind of assay: Test B: cell proliferation/viability assay (CellTiter-Glo) on MCF7 Tyr 537 Ser mutant. Type of assay: cell-based. As to conditions: Homo sapiens, MCF7, 168 h, MCF7 cells expressing ER Tyr 537 Ser mutant, 7 days of compound exposure, read-out: proliferation MCF7 Y537S IC50.
Text: as §1, §2
(§5) The measurements of the viability were made using a breast cancer cell viability assay as described hereunder.
(§6) MCF7 cells expressing (and dependent) on mutants estrogen receptor Tyr 537 Ser or Asp 538 Gly were generated by transfection of MCF7 parental cells (ATCC) with expression vectors coding for different mutants of estrogen receptor Tyr 537 Ser or Asp 538 Gly. The cells were first selected by antibiotic (related to vector expression) and then selected for their growth dependence on estrogen receptor based on their ability to grow in vitro in absence of estradiol (parental cell line die in absence of estradiol).
as §3, §4

For assay [3], the system named is MCF7 cells expressing mutant estrogen receptor Asp 538 Gly. Kind of assay: Test B: cell proliferation/viability assay (CellTiter-Glo) on MCF7 Asp 538 Gly mutant. Format: cell-based. As to conditions: Homo sapiens, MCF7, 168 h, MCF7 cells expressing ER Asp 538 Gly mutant, 7 days of compound exposure, read-out: proliferation MCF7 D538G IC50.
Text: as §1, §2, §5, §6, §3, §4

The target of a further assay is ERα in MCF7 cells (Homo sapiens (Human), UniProt P03372). In words: Test C: estrogen receptor degradation activity, ERα in cell western assay in MCF7 cells. Type of assay: cell-based. The conditions noted are these: for DC50: 4 hours post compound addition, ERα in cell western, read-out: Degradation IC50; for % Degradation at 3 μM: 4 hours, relative to fulvestrant. Summed up: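 Steps: seed MCF7 in phenol red-free medium containing 5% charcoal-dextran stripped FBS; next day add compound, final 3–0.000018 μM; after 4 h fix with 5% formalin plus 0.1% Triton; stain ERα overnight, then secondary at 37 °C for 60 min with Syto-64 at 2 μM; scan green and red intensities.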
ERα in MCF7 cells, sequence (P03372 whole entry): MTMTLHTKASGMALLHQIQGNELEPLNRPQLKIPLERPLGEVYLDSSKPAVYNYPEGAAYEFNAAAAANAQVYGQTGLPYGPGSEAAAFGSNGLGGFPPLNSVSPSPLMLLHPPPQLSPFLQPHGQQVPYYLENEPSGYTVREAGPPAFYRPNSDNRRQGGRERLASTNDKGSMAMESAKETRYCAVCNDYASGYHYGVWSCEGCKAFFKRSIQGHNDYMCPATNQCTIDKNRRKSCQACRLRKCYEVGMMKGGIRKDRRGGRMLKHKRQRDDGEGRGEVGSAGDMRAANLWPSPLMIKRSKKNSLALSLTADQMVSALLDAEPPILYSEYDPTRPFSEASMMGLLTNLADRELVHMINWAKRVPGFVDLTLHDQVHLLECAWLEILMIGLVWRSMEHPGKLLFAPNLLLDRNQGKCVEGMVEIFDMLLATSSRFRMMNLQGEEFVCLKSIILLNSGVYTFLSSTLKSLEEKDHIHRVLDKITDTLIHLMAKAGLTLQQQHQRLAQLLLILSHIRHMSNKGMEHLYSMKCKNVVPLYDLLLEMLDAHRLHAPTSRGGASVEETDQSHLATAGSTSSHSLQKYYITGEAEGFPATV

Assay [4] deals with His6-ERα298-554 Y537S mutant (ERα ligand-binding domain) (Homo sapiens (Human), UniProt P03372, Y537S). Kind of assay: Test A: biochemical antagonist activity, LanthaScreen TR-FRET ERα coactivator assay, Y537S mutant. As to conditions: protocol with 3 nM estradiol; read-out: Antagonism Y537S IC50. Summed up: (§7)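 His6-ERα LBD (0.5 nM) with 0.5 nM Tb-anti-His6 antibody, 250 nM PGC1a peptide and 3 nM (or 10 nM) estradiol in 100 mM potassium phosphate pH 7.4 with 5 mM DTT, incubated overnight at room temperature with compound.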
His6-ERα298-554 Y537S mutant (ERα ligand-binding domain), sequence (P03372 298-554 Y537S): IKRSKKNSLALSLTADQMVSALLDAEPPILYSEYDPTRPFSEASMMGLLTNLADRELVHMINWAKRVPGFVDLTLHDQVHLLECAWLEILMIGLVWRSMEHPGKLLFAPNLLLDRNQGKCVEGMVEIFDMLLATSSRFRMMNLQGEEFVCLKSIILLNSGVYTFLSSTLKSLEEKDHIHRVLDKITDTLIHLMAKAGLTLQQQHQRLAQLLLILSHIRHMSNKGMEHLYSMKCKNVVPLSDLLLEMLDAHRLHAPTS

Assay [5] has as its target His6-ERα298-554 WT (ERα ligand-binding domain) (Homo sapiens (Human), UniProt P03372). In words: Test A: biochemical antagonist activity, LanthaScreen TR-FRET ERα coactivator assay, WT. The conditions noted are these: protocol with 3 nM estradiol; read-out: Antagonism WT IC50. Summed up: as §7
For orientation: In TR-FRET formats the signal depends on donor and acceptor labels being close together.

In assay [6] the target is His6-ERα298-554 D538G mutant (ERα ligand-binding domain) (Homo sapiens (Human), UniProt P03372, D538G). Kind of assay: Test A: biochemical antagonist activity, LanthaScreen TR-FRET ERα coactivator assay, D538G mutant. As to conditions: protocol with 3 nM estradiol; read-out: Antagonism D538G IC50. Summed up:
as §7

His6-ERα298-554 D538G mutant (ERα ligand-binding domain), sequence (P03372 298-554 D538G): as the sequence (P03372 298-554 Y537S) above, with S240Y, D241G counted along it
His6-ERα298-554 WT (ERα ligand-binding domain), sequence (P03372 298-554): as the sequence (P03372 298-554 Y537S) above, with S240Y counted along it

With `Oc1ccc2c(c1)CCC(c1ccc(OC(F)(F)F)cc1)=C2c1ccc(O[C@H]2CCN(CCCF)C2)cc1` [Example 12, 5-[4-[(3S)-1-(3-fluoropropyl)pyrrolidin-3-yl]oxyphenyl]-6-[4-(trifluoromethoxy)phenyl]-7,8-dihydronaphthalen-2-ol], the values for the IC50 in assay [1], in assay [2] and in assay [3] were 1 nM, 9 nM and 5 nM, respectively.

Regarding `Oc1ccc2c(c1)CCC(c1ccc(F)cc1Cl)=C2c1ccc(O[C@H]2CCN(CCCF)C2)cc1` [Example 13, 6-(2-chloro-4-fluoro-phenyl)-5-[4-[(3S)-1-(3-fluoropropyl)pyrrolidin-3-yl]oxyphenyl]-7,8-dihydronaphthalen-2-ol], the IC50 in assay [1] was determined as 0.4 nM; in assay [2], 8 nM; in assay [3], 3 nM.

As for `Oc1ccc2c(c1)CCC(c1ccc(Cl)cc1Cl)=C2c1ccc(O[C@H]2CCN(CCCF)C2)cc1` [Example 14, 6-(2,4-dichlorophenyl)-5-[4-[(3S)-1-(3-fluoropropyl)pyrrolidin-3-yl]oxyphenyl]-7,8-dihydronaphthalen-2-ol], the figures for the IC50 in assay [1], in assay [2] and in assay [3] were 0.5 nM, 6 nM and 1 nM, respectively.

For the compound `Oc1ccc(C2=C(c3ccc(O[C@H]4CCN(CCCF)C4)cc3)c3ccc(O)cc3CC2)cc1` [Example 15, 5-[4-[(3S)-1-(3-fluoropropyl)pyrrolidin-3-yl]oxyphenyl]-6-(4-hydroxyphenyl)-7,8-dihydronaphthalen-2-ol], the IC50 amounted to 0.2 nM in assay [1], 30 nM in assay [2] and 25 nM in assay [3].

Regarding `Cc1ccc(C2=C(c3ccc(O[C@H]4CCN(CCCF)C4)cc3)c3ccc(O)cc3SC2)c(Cl)c1` [Example 58, 3-(2-chloro-4-methyl-phenyl)-4-[4-[(3S)-1-(3-fluoropropyl)pyrrolidin-3-yl]oxyphenyl]-2H-thiochromen-7-ol], the IC50 was determined as 2 nM in assay [1], 5 nM in assay [2] and 0.8 nM in assay [3].

For the compound `Cc1nc(C)c(C2=C(c3ccc(O[C@H]4CCN(CCCF)C4)cc3)c3ccc(O)cc3SC2)s1` [Example 68, 3-(2,4-dimethylthiazol-5-yl)-4-[4-[(3S)-1-(3-fluoropropyl)pyrrolidin-3-yl]oxyphenyl]-2H-thiochromen-7-ol], the IC50 was found to be 14 nM in assay [1], 125 nM in assay [2] and 7 nM in assay [3].

Consider `CC(C)Oc1ccc(C2=C(c3ccc(O[C@H]4CCN(CCCF)C4)cc3)c3ccc(O)cc3OCC2)c(C(F)(F)F)c1.Cl` [Example 150, 5-[4-[(3S)-1-(3-fluoropropyl)pyrrolidin-3-yl]oxyphenyl]-4-[4-isopropoxy-2-(trifluoromethyl)phenyl]-2,3-dihydro-1-benzoxepin-8-ol hydrochloride], for which the IC50 in assay [1] stood at 0.4 nM; in assay [2], 14 nM; in assay [3] it was 2 nM. Besides, the DC50 at ERα in MCF7 cells was found to be 4 nM. Moreover, the “% Degradation at 3 μM” value on ERα in MCF7 cells came out at 82%.

Consider `Oc1ccc2c(c1)SCCC(c1ccc(Cl)cc1Cl)=C2c1ccc(O[C@H]2CCN(CCCF)C2)cc1` [Example 166, 4-(2,4-dichlorophenyl)-5-[4-[(3S)-1-(3-fluoropropyl)pyrrolidin-3-yl]oxyphenyl]-2,3-dihydro-1-benzothiepin-8-ol], for which the IC50 in assay [1] turned out to be 0.2 nM; in assay [2] it was 8 nM; in assay [3], 1 nM. In addition, the DC50 at ERα in MCF7 cells amounted to 2 nM. Further, the “% Degradation at 3 μM” value on ERα in MCF7 cells is 90%.

Take `O=C(O)c1ccc2c(c1)SCCC(c1ccc(Cl)cc1Cl)=C2c1ccc(O[C@H]2CCN(CCCF)C2)cc1` [Example 203, 4-(2,4-dichlorophenyl)-5-[4-[(3S)-1-(3-fluoropropyl)pyrrolidin-3-yl]oxyphenyl]-2,3-dihydro-1-benzothiepine-8-carboxylic acid]: the IC50 in assay [1] came out at 0.8 nM; in assay [2] it was 13 nM; in assay [3], 1 nM. For the same compound, the DC50 at ERα in MCF7 cells worked out at 0.6 nM. Also, on ERα in MCF7 cells, the “% Degradation at 3 μM” value amounted to 93%.

In the case of `Oc1ccc2c(c1)SCCC(c1ccc(Cl)cc1Cl)=C2c1ccc(O[C@H]2CCN(CCCF)C2)nc1` [Example 205, 4-(2,4-dichlorophenyl)-5-[6-[(3S)-1-(3-fluoropropyl)pyrrolidin-3-yl]oxy-3-pyridyl]-2,3-dihydro-1-benzothiepin-8-ol], the IC50 amounted to 0.2 nM in assay [1], 3 nM in assay [2] and 0.2 nM in assay [3]. In addition, the DC50 on ERα in MCF7 cells is 0.4 nM. Moreover, the “% Degradation at 3 μM” value on ERα in MCF7 cells is listed as 84%.

Regarding `O=S1(=O)CCC(c2ccc(Cl)cc2F)=C(c2ccc(O[C@H]3CCN(CCCF)C3)cc2)c2ccc(O)cc21` [Example 233, 4-(4-chloro-2-fluoro-phenyl)-5-[4-[(3S)-1-(3-fluoropropyl)pyrrolidin-3-yl]oxyphenyl]-1,1-dioxo-2,3-dihydro-1λ^6-benzothiepin-8-ol], the IC50 in assay [4] came out at 70 nM; in assay [5], 20 nM; in assay [6], 128 nM. In addition, the DC50 at ERα in MCF7 cells was 0.2 nM. For the same compound, at ERα in MCF7 cells, the “% Degradation at 3 μM” value was 94%.

With `Cc1cc(F)ccc1C1=C(c2ccc(O[C@H]3CCN(CCCF)C3)cc2)c2ccc(O)cc2S(=O)(=O)CC1` [Example 234, 4-(4-fluoro-2-methyl-phenyl)-5-[4-[(3S)-1-(3-fluoropropyl)pyrrolidin-3-yl]oxyphenyl]-1,1-dioxo-2,3-dihydro-1λ^6-benzothiepin-8-ol], the IC50 in assay [4] came to 33 nM; in assay [5], 9 nM; in assay [6], 59 nM. Also, the DC50 on ERα in MCF7 cells is 0.2 nM. Besides, the “% Degradation at 3 μM” value at ERα in MCF7 cells is reported as 90%.

Consider `Cc1c(Cl)cccc1C1=C(c2ccc(O[C@H]3CCN(CCCF)C3)cc2)c2ccc(O)cc2S(=O)(=O)CC1` [Example 235, 4-(3-chloro-2-methyl-phenyl)-5-[4-[(3S)-1-(3-fluoropropyl)pyrrolidin-3-yl]oxyphenyl]-1,1-dioxo-2,3-dihydro-1λ^6-benzothiepin-8-ol], for which the IC50 turned out to be 83 nM in assay [4], 13 nM in assay [5] and 100 nM in assay [6]. Besides, the DC50 on ERα in MCF7 cells turned out to be 0.9 nM. For the same compound, the “% Degradation at 3 μM” value on ERα in MCF7 cells was 95%.

`Cc1cc(C2=C(c3ccc(O[C@H]4CCN(CCCF)C4)cc3)c3ccc(O)cc3S(=O)(=O)CC2)ccc1Cl` [Example 236, 4-(4-chloro-3-methyl-phenyl)-5-[4-[(3S)-1-(3-fluoropropyl)pyrrolidin-3-yl]oxyphenyl]-1,1-dioxo-2,3-dihydro-1λ^6-benzothiepin-8-ol]: the values for the IC50 in assay [4], in assay [5] and in assay [6] were 29 nM, 8 nM and 54 nM, respectively. For the same compound, the DC50 on ERα in MCF7 cells stood at 0.3 nM. Also, the “% Degradation at 3 μM” value on ERα in MCF7 cells is on record as 91%.

For `Oc1ccc2c(c1)CCCC(c1ccc(Cl)c(F)c1)=C2c1ncc(O[C@H]2CCN(CCCF)C2)cn1` [Example 254, 6-(4-chloro-3-fluoro-phenyl)-5-[5-[(3S)-1-(3-fluoropropyl)pyrrolidin-3-yl]oxypyrimidin-2-yl]-8,9-dihydro-7H-benzo[7]annulen-2-ol], the IC50 in assay [1] amounted to 16 nM; in assay [2], 129 nM; in assay [3] it was 17 nM.
